Values of other authors as cited in patent US9987231B2, “Compositions and methods for delivery of omeprazole plus acetylsalicylic acid” (POZEN INC., priority 2011, dated 2018).

Systemic bioavailability (after repeated dose): about 60%
Orally given dose excreted as metabolites in the urine (in vivo, po): About 80%
Time in which absorption is usually completed (small intestine): 3 to 6 h
Plasma protein binding (Plasma protein): about 95%
Compound: COc1ccc2[nH]c([S+]([O-])Cc3ncc(C)c(OC)c3C)nc2c1 (racemic) [Omeprazole]
